Key:
ORYSAT (Rice, Tebonnet) = experiment: Preemergence herbicidal evaluation; type: in vivo, Oryza sativa, (L.) Tebonnet; settings: preemergence, rated 4-5 weeks after treatment, 0-9 scale
In short: (§1)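 Sown cups got a single aqueous acetone spray of test compound (roughly 0.0156–0.500 kg/ha) before seedlings emerged. Evaluation, 4–5 weeks on, used a 0–9 visual scale covering plant stand, vigor, size, malformation, chlorosis and general appearance compared with controls.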

AMBEL (Ragweed, Common) [1] = experiment: Preemergence herbicidal evaluation; type: in vivo, Ambrosia artemisifolia; settings: preemergence, rated 4-5 weeks after treatment, 0-9 scale
In short: as §1

[2] = system: GLXMAW (Soybean, Williams); experiment: Preemergence herbicidal evaluation; type: in vivo, Glycine max, (L.) Merr. cv Williams; settings: preemergence, rated 4-5 weeks after treatment, 0-9 scale
In short: as §1

[3] = system: IPOHE (Morningglory, Ivyleaf); experiment: Postemergence herbicidal evaluation; type: in vivo, Ipomoea hederacea; settings: postemergence
In short: (§2)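 Visual 0-9 injury score (stand, vigor, malformation, size, chlorosis, appearance vs untreated) taken four to five weeks post-spray, averaged across repeat tests. Test plants about two weeks old; foliar spray of acetone/water (1:1) with 0.5% surfactant delivering ~0.0156-0.500 kg active/ha.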

ECHCG (Barnyardgrass) = experiment: Postemergence herbicidal evaluation; type: in vivo, Echinochloa crus-galli; settings: postemergence
In short: as §2

MOOVA (Monochoria) = experiment: Preemergence weed control under flooded paddy conditions; type: in vivo, Monochoria vaginalis; settings: rated 3-4 weeks after treatment
In short: (§3)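 Flooded-pot preemergence screen with silt loam and seeds in the upper 0.5 cm. Dose about 0.0313 to 0.500 kg/ha, delivered into flood water; visual 0-9 score after 3 to 4 weeks.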

AMBEL (Ragweed, Common) [4] = experiment: Postemergence herbicidal evaluation; type: in vivo, Ambrosia artemisifolia; settings: postemergence
In short: as §2

[5] = system: TRZAWR (Wheat, Winter, cv Riband); experiment: Postemergence herbicidal evaluation; type: in vivo, Triticum aestivum; settings: postemergence
In short: as §2

[6] = system: GLXMAW (Soybean, Williams); experiment: Postemergence herbicidal evaluation; type: in vivo, Glycine max, (L.) Merr. cv Williams; settings: postemergence
In short: as §2

CASOB (Sicklepod) [7] = experiment: Preemergence herbicidal evaluation; type: in vivo, Cassia obtusifolia; settings: preemergence, rated 4-5 weeks after treatment, 0-9 scale
In short: as §1

ABUTH (Velvetleaf) = experiment: Preemergence herbicidal evaluation; type: in vivo, Abutilon theophrasti; settings: preemergence, rated 4-5 weeks after treatment, 0-9 scale
In short: as §1

[8] = system: CHEAL (Lambsquarters, Common); experiment: Postemergence herbicidal evaluation; type: in vivo, Chenopodium album; settings: postemergence
In short: as §2

[9] = system: CHEAL (Lambsquarters, Common); experiment: Preemergence herbicidal evaluation; type: in vivo, Chenopodium album; settings: preemergence, rated 4-5 weeks after treatment, 0-9 scale
In short: as §1

[10] = system: IPOHE (Morningglory, Ivyleaf); experiment: Preemergence herbicidal evaluation; type: in vivo, Ipomoea hederacea; settings: preemergence, rated 4-5 weeks after treatment, 0-9 scale
In short: as §1

CASOB (Sicklepod) [11] = experiment: Postemergence herbicidal evaluation; type: in vivo, Cassia obtusifolia; settings: postemergence
In short: as §2

[12] = system: SAGPY (Arrowhead (Pygmaea)); experiment: Preemergence weed control under flooded paddy conditions; type: in vivo, Sagittaria pygmaea; settings: rated 3-4 weeks after treatment
In short: as §3

CCOC(=O)CN1C(=O)C(CC(=O)NS(=O)(=O)c2ccccc2)SC1=Nc1cc(-n2c(=O)cc(C(F)(F)F)n(C)c2=O)c(F)cc1Cl (stereo not shown) [Compound 100, Ethyl 2-{{2-chloro-5-[3,6-dihydro-3-methyl-2,6-dioxo-4-(trifluoromethyl)-1(2H)-pyrimidinyl]-4-fluorophenyl}imino}-4-oxo-5-{[(phenylsulfonyl)-carbamoyl]methyl]-3-thiazolidineacetate]
ORYSAT rating (ORYSAT (Rice, Tebonnet); 0.0313 kg/ha): 0.0 | ORYSAT rating (ORYSAT (Rice, Tebonnet); 0.0625 kg/ha): 0.0 | ORYSAT rating (ORYSAT (Rice, Tebonnet); 0.1250 kg/ha): 0.0 | ORYSAT rating (ORYSAT (Rice, Tebonnet); 0.2500 kg/ha): 0.0 | ORYSAT rating (ORYSAT (Rice, Tebonnet); 0.5000 kg/ha): 1.0 | AMBEL rating (AMBEL (Ragweed, Common) [1]; 0.0313 kg/ha): 0.0 | AMBEL rating (AMBEL (Ragweed, Common) [1]; 0.0625 kg/ha): 0.0 | AMBEL rating (AMBEL (Ragweed, Common) [1]; 0.1250 kg/ha): 1.0 | AMBEL rating (AMBEL (Ragweed, Common) [1]; 0.2500 kg/ha): 1.0 | AMBEL rating (AMBEL (Ragweed, Common) [1]; 0.5000 kg/ha): 7.0 | GLXMAW rating ([2]; 0.0313 kg/ha): 0.0 | GLXMAW rating ([2]; 0.0625 kg/ha): 1.0 | GLXMAW rating ([2]; 0.1250 kg/ha): 1.0 | GLXMAW rating ([2]; 0.2500 kg/ha): 0.0 | GLXMAW rating ([2]; 0.5000 kg/ha): 2.0 | herbicidal rating IPOHE ([3]; rate 0.0156 kg/ha): 5.0 | herbicidal rating IPOHE ([3]; rate 0.0313 kg/ha): 9.0 | herbicidal rating IPOHE ([3]; rate 0.0625 kg/ha): 9.0 | herbicidal rating IPOHE ([3]; rate 0.1250 kg/ha): 9.0 | herbicidal rating ECHCG (ECHCG (Barnyardgrass); rate 0.0156 kg/ha): 1.0 | herbicidal rating ECHCG (ECHCG (Barnyardgrass); rate 0.0313 kg/ha): 3.0 | herbicidal rating ECHCG (ECHCG (Barnyardgrass); rate 0.0625 kg/ha): 4.0 | herbicidal rating ECHCG (ECHCG (Barnyardgrass); rate 0.1250 kg/ha): 7.0 | MOOVA herbicidal effect rating (MOOVA (Monochoria); 0.0313 kg/ha): 9.0 | MOOVA herbicidal effect rating (MOOVA (Monochoria); 0.0625 kg/ha): 9.0 | MOOVA herbicidal effect rating (MOOVA (Monochoria); 0.1250 kg/ha): 9.0 | MOOVA herbicidal effect rating (MOOVA (Monochoria); 0.2500 kg/ha): 9.0 | MOOVA herbicidal effect rating (MOOVA (Monochoria); 0.5000 kg/ha): 9.0 | herbicidal rating AMBEL (AMBEL (Ragweed, Common) [4]; rate 0.0156 kg/ha): 9.0 | herbicidal rating AMBEL (AMBEL (Ragweed, Common) [4]; rate 0.0313 kg/ha): 9.0 | herbicidal rating AMBEL (AMBEL (Ragweed, Common) [4]; rate 0.0625 kg/ha): 9.0 | herbicidal rating AMBEL (AMBEL (Ragweed, Common) [4]; rate 0.1250 kg/ha): 7.0 | herbicidal rating TRZAWR ([5]; rate 0.0156 kg/ha): 3.0 | herbicidal rating TRZAWR ([5]; rate 0.0313 kg/ha): 4.0 | herbicidal rating TRZAWR ([5]; rate 0.0625 kg/ha): 3.5 | herbicidal rating TRZAWR ([5]; rate 0.1250 kg/ha): 4.0 | herbicidal rating GLXMAW ([6]; rate 0.0156 kg/ha): 5.5 | herbicidal rating GLXMAW ([6]; rate 0.0313 kg/ha): 6.0 | herbicidal rating GLXMAW ([6]; rate 0.0625 kg/ha): 6.5 | herbicidal rating GLXMAW ([6]; rate 0.1250 kg/ha): 7.0 | CASOB rating (CASOB (Sicklepod) [7]; 0.0313 kg/ha): 0.0 | CASOB rating (CASOB (Sicklepod) [7]; 0.0625 kg/ha): 0.0 | CASOB rating (CASOB (Sicklepod) [7]; 0.1250 kg/ha): 0.0 | CASOB rating (CASOB (Sicklepod) [7]; 0.2500 kg/ha): 0.0 | CASOB rating (CASOB (Sicklepod) [7]; 0.5000 kg/ha): 8.0 | ABUTH rating (ABUTH (Velvetleaf); 0.0313 kg/ha): 0.0 | ABUTH rating (ABUTH (Velvetleaf); 0.0625 kg/ha): 0.0 | ABUTH rating (ABUTH (Velvetleaf); 0.1250 kg/ha): 2.0 | ABUTH rating (ABUTH (Velvetleaf); 0.2500 kg/ha): 9.0 | ABUTH rating (ABUTH (Velvetleaf); 0.5000 kg/ha): 9.0 | herbicidal rating CHEAL ([8]; rate 0.0156 kg/ha): 5.0 | herbicidal rating CHEAL ([8]; rate 0.0313 kg/ha): 7.0 | herbicidal rating CHEAL ([8]; rate 0.0625 kg/ha): 7.0 | herbicidal rating CHEAL ([8]; rate 0.1250 kg/ha): 9.0 | CHEAL rating ([9]; 0.0313 kg/ha): 9.0 | CHEAL rating ([9]; 0.0625 kg/ha): 9.0 | CHEAL rating ([9]; 0.1250 kg/ha): 9.0 | CHEAL rating ([9]; 0.2500 kg/ha): 9.0 | CHEAL rating ([9]; 0.5000 kg/ha): 9.0 | IPOHE rating ([10]; 0.0313 kg/ha): 1.0 | IPOHE rating ([10]; 0.0625 kg/ha): 0.0 | IPOHE rating ([10]; 0.1250 kg/ha): 0.0 | IPOHE rating ([10]; 0.2500 kg/ha): 2.0 | IPOHE rating ([10]; 0.5000 kg/ha): 5.0 | herbicidal rating CASOB (CASOB (Sicklepod) [11]; rate 0.0156 kg/ha): 2.0 | herbicidal rating CASOB (CASOB (Sicklepod) [11]; rate 0.0313 kg/ha): 7.0 | herbicidal rating CASOB (CASOB (Sicklepod) [11]; rate 0.0625 kg/ha): 6.0 | herbicidal rating CASOB (CASOB (Sicklepod) [11]; rate 0.1250 kg/ha): 9.0 | SAGPY herbicidal effect rating ([12]; 0.0313 kg/ha): 0.0 | SAGPY herbicidal effect rating ([12]; 0.0625 kg/ha): 0.0 | SAGPY herbicidal effect rating ([12]; 0.1250 kg/ha): 0.0 | SAGPY herbicidal effect rating ([12]; 0.2500 kg/ha): 4.0 | SAGPY herbicidal effect rating ([12]; 0.5000 kg/ha): 6.0

— patent US20020137929A1, “1 - (3-heterocyclylphenyl) isothiourea, -isourea, -guanidine and -amidine herbicidal agents” (Intellectual Property Department, BASF Aktiengesellschaft, priority 1998, published 2002)
